# Laboratory results from PMC9234961 (Journal of Medicinal Chemistry, 2022).
# Experiments:
# [1] = target: kinases (468) (Homo sapiens, UniProt Q9Y6E0); conditions: MST3 (STK24); 1000 nM
# [2] = target: kinases (468) (Homo sapiens, UniProt Q9Y2I7); conditions: PIKFYVE; 1000 nM
# [3] = target: kinases (468) (Homo sapiens, UniProt P08581, Y1235D); conditions: MET(Y1235D); 1000 nM
# [4] = target: kinases (468) (Homo sapiens, UniProt O14578); conditions: CIT; 1000 nM
# [5] = target: kinases (468) (Homo sapiens, UniProt Q7KZI7); conditions: MARK2; 1000 nM
# [6] = target: kinases (468) (Homo sapiens, UniProt Q8NG66); conditions: NEK11; 1000 nM
# [7] = target: kinases (468) (Homo sapiens, UniProt O96013); conditions: PAK4; 1000 nM
# [8] = target: kinases (468) (Homo sapiens, UniProt O00238); conditions: BMPR1B; 1000 nM
# [9] = target: kinases (468) (Homo sapiens, UniProt P36888, D835H); conditions: FLT3(D835H); 1000 nM
# [10] = target: kinases (468) (Homo sapiens, UniProt P08922); conditions: kinase ROS1 (Entrez ROS1); compound concentration 1000 nM
# [11] = target: kinases (468) (Homo sapiens, UniProt Q12866); conditions: MERTK; 1000 nM
# [12] = target: kinases (468) (Homo sapiens, UniProt P35916); conditions: FLT4; 1000 nM
# [13] = target: kinases (468) (Homo sapiens, UniProt Q04771); conditions: ACVR1; 1000 nM
# [14] = target: kinases (468) (Homo sapiens, UniProt O95835); conditions: LATS1; 1000 nM
# Chain of kinases (468) (Homo sapiens, UniProt O95835) (O95835 whole entry): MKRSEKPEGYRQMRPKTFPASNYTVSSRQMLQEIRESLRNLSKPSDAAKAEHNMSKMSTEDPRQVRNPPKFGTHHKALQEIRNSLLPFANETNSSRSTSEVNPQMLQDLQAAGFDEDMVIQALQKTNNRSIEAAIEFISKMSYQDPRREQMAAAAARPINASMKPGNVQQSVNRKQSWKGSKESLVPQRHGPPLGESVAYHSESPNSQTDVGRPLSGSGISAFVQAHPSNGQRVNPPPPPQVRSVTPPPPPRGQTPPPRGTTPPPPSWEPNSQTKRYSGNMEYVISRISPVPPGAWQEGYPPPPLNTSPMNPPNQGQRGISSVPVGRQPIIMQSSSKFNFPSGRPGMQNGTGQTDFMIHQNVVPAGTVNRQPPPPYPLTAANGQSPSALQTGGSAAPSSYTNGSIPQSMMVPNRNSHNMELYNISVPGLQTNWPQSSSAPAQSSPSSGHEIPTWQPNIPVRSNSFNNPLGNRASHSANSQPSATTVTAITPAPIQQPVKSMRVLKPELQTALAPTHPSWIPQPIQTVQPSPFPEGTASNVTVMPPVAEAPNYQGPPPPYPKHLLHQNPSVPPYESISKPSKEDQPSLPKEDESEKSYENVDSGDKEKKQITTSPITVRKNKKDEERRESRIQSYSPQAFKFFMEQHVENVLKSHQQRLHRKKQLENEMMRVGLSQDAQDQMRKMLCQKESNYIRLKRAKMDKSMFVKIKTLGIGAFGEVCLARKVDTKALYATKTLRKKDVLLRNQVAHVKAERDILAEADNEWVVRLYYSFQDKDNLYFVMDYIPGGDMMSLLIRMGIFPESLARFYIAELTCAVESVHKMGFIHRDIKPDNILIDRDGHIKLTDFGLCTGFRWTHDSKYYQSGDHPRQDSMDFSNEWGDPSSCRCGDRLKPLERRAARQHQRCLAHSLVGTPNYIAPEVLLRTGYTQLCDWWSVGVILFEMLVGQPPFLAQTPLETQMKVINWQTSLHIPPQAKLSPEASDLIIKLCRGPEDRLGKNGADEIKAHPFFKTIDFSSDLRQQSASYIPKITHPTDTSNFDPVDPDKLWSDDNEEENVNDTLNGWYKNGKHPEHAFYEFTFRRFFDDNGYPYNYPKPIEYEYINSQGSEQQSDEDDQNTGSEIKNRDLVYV
# [15] = target: kinases (468) (Homo sapiens, UniProt P14616); conditions: INSRR; 1000 nM
# [16] = target: kinases (468) (Homo sapiens, UniProt P57059); conditions: kinase SIK (Entrez SIK1); compound concentration 1000 nM
# [17] = target: kinases (468) (Homo sapiens, UniProt Q86UX6); conditions: kinase YANK3 (Entrez STK32C); compound concentration 1000 nM
# [18] = target: kinases (468) (Homo sapiens, UniProt Q16659); conditions: ERK3 (MAPK6); 1000 nM
# [19] = target: kinases (468) (Homo sapiens, UniProt Q13873); conditions: BMPR2; 1000 nM
# [20] = target: kinases (468) (Homo sapiens, UniProt P15735); conditions: PHKG2; 1000 nM
# [21] = target: kinases (468) (Homo sapiens, UniProt P27448); conditions: MARK3; 1000 nM
# [22] = target: kinases (468) (Homo sapiens, UniProt O14730); conditions: kinase RIOK3 (Entrez RIOK3); compound concentration 1000 nM
# [23] = target: kinases (468) (Homo sapiens, UniProt Q8N5S9); conditions: CAMKK1; 1000 nM
# Chain of kinases (468) (Homo sapiens, UniProt Q8N5S9) (Q8N5S9 whole entry): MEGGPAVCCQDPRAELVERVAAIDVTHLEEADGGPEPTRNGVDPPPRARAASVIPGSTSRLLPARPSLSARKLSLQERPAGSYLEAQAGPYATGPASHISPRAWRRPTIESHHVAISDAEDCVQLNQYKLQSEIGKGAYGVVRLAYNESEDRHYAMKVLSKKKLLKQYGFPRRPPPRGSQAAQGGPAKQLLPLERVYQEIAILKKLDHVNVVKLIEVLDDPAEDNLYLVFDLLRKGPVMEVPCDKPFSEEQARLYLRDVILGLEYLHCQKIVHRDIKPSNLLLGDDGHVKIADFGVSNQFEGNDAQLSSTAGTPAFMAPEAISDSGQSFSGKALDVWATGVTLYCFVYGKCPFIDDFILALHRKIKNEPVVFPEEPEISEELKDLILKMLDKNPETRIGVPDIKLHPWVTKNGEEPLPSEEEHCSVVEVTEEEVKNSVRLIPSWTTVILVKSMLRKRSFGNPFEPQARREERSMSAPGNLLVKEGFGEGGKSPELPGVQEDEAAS
# [24] = target: kinases (468) (Homo sapiens, UniProt P00533, L858R/T790M); conditions: EGFR(L858R,T790M); 1000 nM
# [25] = target: kinases (468) (Homo sapiens, UniProt P22455); conditions: FGFR4; 1000 nM
# [26] = target: kinases (468) (Homo sapiens, UniProt Q8IY84); conditions: NIM1 (MGC42105); 1000 nM
# [27] = target: kinases (468) (Homo sapiens, UniProt Q96GD4); conditions: AURKB; 1000 nM
# [28] = target: kinases (468) (Homo sapiens, UniProt Q2M2I8); conditions: AAK1; 1000 nM
# [29] = target: kinases (468) (Homo sapiens, UniProt Q13153); conditions: PAK1; 1000 nM
# [30] = target: kinases (468) (Homo sapiens, UniProt Q00537); conditions: PCTK2 (CDK17); 1000 nM
# [31] = target: kinases (468) (Homo sapiens, UniProt P12931); conditions: kinase SRC (Entrez SRC); compound concentration 1000 nM
# Chain of kinases (468) (Homo sapiens, UniProt P12931) (P12931 whole entry): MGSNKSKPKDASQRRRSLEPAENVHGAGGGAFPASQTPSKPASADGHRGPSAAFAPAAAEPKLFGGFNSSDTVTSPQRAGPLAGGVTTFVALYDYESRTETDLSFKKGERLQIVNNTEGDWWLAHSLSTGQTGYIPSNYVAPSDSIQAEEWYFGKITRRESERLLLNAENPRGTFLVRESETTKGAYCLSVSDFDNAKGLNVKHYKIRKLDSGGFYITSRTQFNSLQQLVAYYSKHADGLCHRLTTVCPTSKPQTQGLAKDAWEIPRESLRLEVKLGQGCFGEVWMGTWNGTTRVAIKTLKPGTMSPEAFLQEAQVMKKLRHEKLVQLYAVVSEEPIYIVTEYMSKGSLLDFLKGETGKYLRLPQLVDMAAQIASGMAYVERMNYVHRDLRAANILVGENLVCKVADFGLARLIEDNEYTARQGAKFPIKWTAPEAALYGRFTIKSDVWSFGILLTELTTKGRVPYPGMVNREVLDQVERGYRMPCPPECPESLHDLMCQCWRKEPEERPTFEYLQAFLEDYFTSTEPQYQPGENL
# [32] = target: kinases (468) (Homo sapiens, UniProt Q96L34); conditions: MARK4; 1000 nM
# Chain of kinases (468) (Homo sapiens, UniProt Q96L34) (Q96L34 whole entry): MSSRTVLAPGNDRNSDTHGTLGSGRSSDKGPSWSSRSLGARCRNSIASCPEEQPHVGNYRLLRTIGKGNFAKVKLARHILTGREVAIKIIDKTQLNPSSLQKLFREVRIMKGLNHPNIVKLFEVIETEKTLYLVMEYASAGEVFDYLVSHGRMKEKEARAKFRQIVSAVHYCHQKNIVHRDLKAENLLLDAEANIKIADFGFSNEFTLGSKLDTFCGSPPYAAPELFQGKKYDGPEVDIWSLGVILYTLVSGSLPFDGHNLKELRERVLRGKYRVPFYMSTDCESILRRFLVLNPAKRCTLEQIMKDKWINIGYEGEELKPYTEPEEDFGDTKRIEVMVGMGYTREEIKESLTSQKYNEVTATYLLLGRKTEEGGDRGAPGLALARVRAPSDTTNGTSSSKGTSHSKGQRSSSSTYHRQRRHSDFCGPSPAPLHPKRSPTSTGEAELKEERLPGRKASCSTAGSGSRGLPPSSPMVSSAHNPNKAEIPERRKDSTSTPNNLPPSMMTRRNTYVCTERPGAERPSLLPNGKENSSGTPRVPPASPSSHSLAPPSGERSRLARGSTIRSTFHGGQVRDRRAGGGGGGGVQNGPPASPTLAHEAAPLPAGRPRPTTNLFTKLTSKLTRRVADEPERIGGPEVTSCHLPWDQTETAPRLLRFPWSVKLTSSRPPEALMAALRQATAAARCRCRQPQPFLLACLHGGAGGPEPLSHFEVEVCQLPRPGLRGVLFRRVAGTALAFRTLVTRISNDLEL
# [33] = target: kinases (468) (Homo sapiens, UniProt Q6ZN16); conditions: MAP3K15; 1000 nM
# Chain of kinases (468) (Homo sapiens, UniProt Q6ZN16) (Q6ZN16 whole entry): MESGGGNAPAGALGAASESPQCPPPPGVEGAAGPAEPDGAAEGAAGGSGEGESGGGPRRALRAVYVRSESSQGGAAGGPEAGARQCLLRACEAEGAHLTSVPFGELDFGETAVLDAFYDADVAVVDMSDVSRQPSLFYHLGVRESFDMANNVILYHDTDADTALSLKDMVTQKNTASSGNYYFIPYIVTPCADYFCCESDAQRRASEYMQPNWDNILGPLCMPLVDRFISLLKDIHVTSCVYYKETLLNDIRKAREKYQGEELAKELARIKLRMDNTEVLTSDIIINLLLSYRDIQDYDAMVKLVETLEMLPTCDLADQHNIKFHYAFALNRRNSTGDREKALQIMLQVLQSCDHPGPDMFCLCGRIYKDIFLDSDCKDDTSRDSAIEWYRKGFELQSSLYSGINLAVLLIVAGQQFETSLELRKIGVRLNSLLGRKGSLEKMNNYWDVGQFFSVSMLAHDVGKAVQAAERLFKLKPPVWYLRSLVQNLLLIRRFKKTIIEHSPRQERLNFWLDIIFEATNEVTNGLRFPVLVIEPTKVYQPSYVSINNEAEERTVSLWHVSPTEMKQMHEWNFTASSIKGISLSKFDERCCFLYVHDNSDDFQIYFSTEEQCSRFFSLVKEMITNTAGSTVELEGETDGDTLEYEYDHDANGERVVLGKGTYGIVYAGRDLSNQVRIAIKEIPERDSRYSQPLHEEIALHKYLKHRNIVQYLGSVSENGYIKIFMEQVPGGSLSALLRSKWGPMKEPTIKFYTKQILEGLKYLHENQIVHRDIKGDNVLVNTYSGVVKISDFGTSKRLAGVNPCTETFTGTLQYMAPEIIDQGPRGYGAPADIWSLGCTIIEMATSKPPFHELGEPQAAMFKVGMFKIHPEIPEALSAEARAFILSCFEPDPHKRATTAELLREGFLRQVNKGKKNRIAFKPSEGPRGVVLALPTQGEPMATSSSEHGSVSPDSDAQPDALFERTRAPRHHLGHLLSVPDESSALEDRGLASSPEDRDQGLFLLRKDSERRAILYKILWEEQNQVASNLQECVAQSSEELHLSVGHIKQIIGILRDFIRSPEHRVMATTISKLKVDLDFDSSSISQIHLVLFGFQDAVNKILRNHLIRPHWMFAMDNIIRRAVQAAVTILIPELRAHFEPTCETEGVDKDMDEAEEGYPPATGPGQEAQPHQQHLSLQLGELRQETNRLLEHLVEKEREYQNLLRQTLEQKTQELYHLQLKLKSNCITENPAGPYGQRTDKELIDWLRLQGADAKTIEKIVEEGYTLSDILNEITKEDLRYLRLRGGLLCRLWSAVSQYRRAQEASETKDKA
# [34] = target: kinases (468) (Homo sapiens, UniProt Q9NRH2); conditions: kinase SNRK (Entrez SNRK); compound concentration 1000 nM
# Chain of kinases (468) (Homo sapiens, UniProt Q9NRH2) (Q9NRH2 whole entry): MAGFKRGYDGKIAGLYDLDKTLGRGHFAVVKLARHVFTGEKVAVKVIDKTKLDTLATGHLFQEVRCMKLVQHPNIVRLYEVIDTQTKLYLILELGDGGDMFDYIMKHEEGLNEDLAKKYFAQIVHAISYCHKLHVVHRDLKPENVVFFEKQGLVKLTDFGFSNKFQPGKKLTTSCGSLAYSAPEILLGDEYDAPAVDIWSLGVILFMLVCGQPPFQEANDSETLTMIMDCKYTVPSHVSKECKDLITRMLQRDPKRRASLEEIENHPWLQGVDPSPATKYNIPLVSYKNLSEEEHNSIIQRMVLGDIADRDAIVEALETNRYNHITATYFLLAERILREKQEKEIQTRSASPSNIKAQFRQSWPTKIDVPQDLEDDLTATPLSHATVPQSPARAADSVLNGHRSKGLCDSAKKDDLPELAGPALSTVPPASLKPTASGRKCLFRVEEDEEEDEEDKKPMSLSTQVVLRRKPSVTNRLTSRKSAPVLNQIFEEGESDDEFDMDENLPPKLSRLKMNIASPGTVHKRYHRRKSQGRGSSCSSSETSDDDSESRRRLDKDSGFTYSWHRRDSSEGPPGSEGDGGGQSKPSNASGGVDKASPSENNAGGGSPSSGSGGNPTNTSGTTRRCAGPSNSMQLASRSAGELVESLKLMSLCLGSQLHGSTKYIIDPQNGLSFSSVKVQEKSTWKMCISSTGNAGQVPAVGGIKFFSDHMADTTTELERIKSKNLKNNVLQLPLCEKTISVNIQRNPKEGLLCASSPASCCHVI
# [35] = target: kinases (468) (Homo sapiens, UniProt Q9UF33); conditions: EPHA6; 1000 nM
smiles,measurement,setting,value
C[C@H]1C[C@@H](O)CN(c2ncc(Cl)c(Nc3ccc4c(c3)c3c(c(=O)n4C)OCC(F)(F)[C@H](C4CC4)N3)n2)C1 [CCT373566_9A],Percent Control,[1],80%
same,Percent Control,[2],83%
same,Percent Control,[3],99%
same,Percent Control,[4],99%
same,Percent Control,[5],93%
same,Percent Control,[6],95%
same,Percent Control,[7],100%
same,Percent Control,[8],97%
same,Percent Control,[9],90%
same,Percent Control,[10],100%
same,Percent Control,[11],96%
same,Percent Control,[12],100%
same,Percent Control,[13],85%
same,Percent Control,[14],94%
same,Percent Control,[15],100%
same,Percent Control,[16],98%
same,Percent Control,[17],100%
same,Percent Control,[18],100%
same,Percent Control,[19],100%
same,Percent Control,[20],100%
same,Percent Control,[21],89%
same,Percent Control,[22],85%
same,Percent Control,[23],99%
same,Percent Control,[24],81%
same,Percent Control,[25],100%
same,Percent Control,[26],90%
same,Percent Control,[27],92%
same,Percent Control,[28],93%
same,Percent Control,[29],100%
same,Percent Control,[30],95%
same,Percent Control,[31],100%
same,Percent Control,[32],100%
same,Percent Control,[33],99%
same,Percent Control,[34],93%
same,Percent Control,[35],100%
